Assays:
[1] = Stability in mouse plasma (LC-MS/MS); type: in vitro ADME; settings: indicated concentrations and incubation time points
Procedure: FIG. 11 illustrates the dose-dependent effect of (FIG. 11A) freshly prepared EP-009(P) and (FIG. 11B) EP-009(P) stored in aqueous conditions for 48 hr at room temperature on IL-2/JAK3-dependent Kit225 cell viability. FIG. 12 illustrates LC-MS/MS detection of EP-009 (5 ng/ml) in mouse plasma at a retention time of 1.91 min.

[2] = LD50 / acute safety, intravenous tail vein injection; type: in vivo; settings: mice, IV bolus
Procedure: Mice were dosed using EP009 (-P) by intravenous tail vein injection. 25 mice were divided into groups of 5 and given doses of 2.0 mg (group B), 4.0 mg (group C), 6.0 mg (group D), and 8.0 mg (group E) of EP009, along with a placebo control (group A), in a volume of […]. This corresponded to doses of 100, 200, 300, 400 mg/kg, and 0 mg/kg (control). Dosing began at 3:15 p.m., and began with the highest dose group, followed by 6, 4, 2, and the control group. Dosing took around 15 minutes.

BRAF = BRAF (Homo sapiens, UniProt P15056); assay: Kinase panel: BRAF; type: biochemical; settings: 10 μM EP009
Procedure: (§1) Achieving JAK3 selectivity remains a significant challenge in the development of new small molecules for the treatment of cancer and immune-derived diseases. As such, the inventors employed cell-based screening assays of small-molecule libraries based upon the chemical scaffold of the established JAK3 inhibitor NC1153 (Stepkowski et al., J Immunol. (2005), 175(7):4236-4246) EP009 (FIG. 2A) was selected as a lead compound due to improved intrinsic stability (>95% purity in various solvents at 37° C. for 24 hours; FIG. 3) and high-degree of JAK3 selectivity. To test JAK3 versus JAK2 specificity of EP009, the IL-2/JAK3-dependent Kit225, and IL-3/JAK2-dependent BaF/3 cell lines were used. Kit225 and BaF/3 cells growing in the presence of IL-2 or IL-3, respectively, were treated with ascending concentrations of EP009 for 12 hours and cellular JAK3 and JAK2 tyrosine phosphorylation levels detected by Western blot analysis (FIGS. 2B and 2C). Following densitometric analysis, EP009 was determined to dose-dependently reduce IL-2-mediated JAK3 tyrosine phosphorylation with a cellular 50% inhibitory concentration (IC50) between 10 and 20 μM (FIG. 2B). […] To globally evaluate specificity, the inhibitory activity of EP009 was measured against a panel of protein kinases distributed throughout the kinome using the scanEDGE profiling service (KINOMEscan). […]

CDK3 = CDK3 (Homo sapiens, UniProt Q00526); assay: Kinase panel: CDK3; type: biochemical; settings: 10 μM EP009
Procedure: as §1

GSK3B = GSK3B (Homo sapiens, UniProt P49841); assay: Kinase panel: GSK3B; type: biochemical; settings: 10 μM EP009
Procedure: as §1

IKK-alpha = IKK-alpha (Homo sapiens, UniProt O15111); assay: Kinase panel: IKK-alpha; type: biochemical; settings: 10 μM EP009
Procedure: as §1

IKK-beta = IKK-beta (Homo sapiens, UniProt O14920); assay: Kinase panel: IKK-beta; type: biochemical; settings: 10 μM EP009
Procedure: as §1

JNK1 = JNK1 (Homo sapiens, UniProt P45983); assay: Kinase panel: JNK1; type: biochemical; settings: 10 μM EP009
Procedure: as §1

PIM1 = PIM1 (Homo sapiens, UniProt P11309); assay: Kinase panel: PIM1; type: biochemical; settings: 10 μM EP009
Procedure: as §1

PIM2 = PIM2 (Homo sapiens, UniProt Q9P1W9); assay: Kinase panel: PIM2; type: biochemical; settings: 10 μM EP009
Procedure: as §1

PLK3 = PLK3 (Homo sapiens, UniProt Q9H4B4); assay: Kinase panel: PLK3; type: biochemical; settings: 10 μM EP009
Procedure: as §1

PLK4 = PLK4 (Homo sapiens, UniProt O00444); assay: Kinase panel: PLK4; type: biochemical; settings: 10 μM EP009
Procedure: as §1

SNARK = SNARK (Homo sapiens, UniProt Q9H093); assay: Kinase panel: SNARK; type: biochemical; settings: 10 μM EP009
Procedure: as §1

TIE2 = TIE2 (Homo sapiens, UniProt Q02763); assay: Kinase panel: TIE2; type: biochemical; settings: 10 μM EP009
Procedure: as §1

Chain of PLK4 (O00444 whole entry): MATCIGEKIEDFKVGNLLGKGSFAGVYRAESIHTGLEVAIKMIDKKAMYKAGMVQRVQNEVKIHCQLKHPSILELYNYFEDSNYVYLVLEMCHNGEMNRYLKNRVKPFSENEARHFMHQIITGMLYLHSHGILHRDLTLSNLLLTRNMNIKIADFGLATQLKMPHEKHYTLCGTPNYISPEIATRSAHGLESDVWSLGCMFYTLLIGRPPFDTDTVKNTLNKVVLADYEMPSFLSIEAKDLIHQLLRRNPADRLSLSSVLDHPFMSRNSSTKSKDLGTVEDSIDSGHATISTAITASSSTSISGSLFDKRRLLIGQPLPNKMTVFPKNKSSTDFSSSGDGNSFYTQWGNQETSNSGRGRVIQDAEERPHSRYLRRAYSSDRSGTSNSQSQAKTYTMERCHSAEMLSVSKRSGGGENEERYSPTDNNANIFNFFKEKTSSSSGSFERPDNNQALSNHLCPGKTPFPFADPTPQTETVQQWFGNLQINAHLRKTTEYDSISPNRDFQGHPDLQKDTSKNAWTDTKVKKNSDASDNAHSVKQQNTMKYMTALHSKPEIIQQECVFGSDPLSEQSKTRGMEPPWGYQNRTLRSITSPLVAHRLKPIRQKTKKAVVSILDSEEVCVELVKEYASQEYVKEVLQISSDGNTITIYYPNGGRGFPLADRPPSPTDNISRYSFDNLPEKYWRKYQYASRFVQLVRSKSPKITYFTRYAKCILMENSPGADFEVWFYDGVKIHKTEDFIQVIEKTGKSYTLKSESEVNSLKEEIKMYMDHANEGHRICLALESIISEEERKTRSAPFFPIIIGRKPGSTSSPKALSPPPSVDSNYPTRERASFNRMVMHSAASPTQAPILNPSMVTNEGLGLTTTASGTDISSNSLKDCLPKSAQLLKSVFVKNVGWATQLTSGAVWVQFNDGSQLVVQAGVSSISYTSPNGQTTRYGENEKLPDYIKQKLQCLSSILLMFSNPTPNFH
Chain of PLK3 (Q9H4B4 whole entry): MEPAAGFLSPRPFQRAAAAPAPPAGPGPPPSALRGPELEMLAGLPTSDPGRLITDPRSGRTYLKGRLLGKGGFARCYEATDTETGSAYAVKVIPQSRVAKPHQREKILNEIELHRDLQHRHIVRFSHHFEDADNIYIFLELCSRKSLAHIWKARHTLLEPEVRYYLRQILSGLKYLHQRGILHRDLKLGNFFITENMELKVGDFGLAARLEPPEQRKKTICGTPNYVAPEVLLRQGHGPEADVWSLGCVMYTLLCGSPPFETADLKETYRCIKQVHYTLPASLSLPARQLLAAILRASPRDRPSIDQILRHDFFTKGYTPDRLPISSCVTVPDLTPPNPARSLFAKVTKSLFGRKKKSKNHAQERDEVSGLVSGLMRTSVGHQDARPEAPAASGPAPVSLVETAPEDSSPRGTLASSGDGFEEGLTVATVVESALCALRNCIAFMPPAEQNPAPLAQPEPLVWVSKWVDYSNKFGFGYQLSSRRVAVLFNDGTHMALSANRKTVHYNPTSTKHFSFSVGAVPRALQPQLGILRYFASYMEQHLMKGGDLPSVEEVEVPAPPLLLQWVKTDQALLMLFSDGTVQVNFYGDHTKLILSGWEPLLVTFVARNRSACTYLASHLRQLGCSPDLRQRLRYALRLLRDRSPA
Chain of JNK1 (P45983 whole entry): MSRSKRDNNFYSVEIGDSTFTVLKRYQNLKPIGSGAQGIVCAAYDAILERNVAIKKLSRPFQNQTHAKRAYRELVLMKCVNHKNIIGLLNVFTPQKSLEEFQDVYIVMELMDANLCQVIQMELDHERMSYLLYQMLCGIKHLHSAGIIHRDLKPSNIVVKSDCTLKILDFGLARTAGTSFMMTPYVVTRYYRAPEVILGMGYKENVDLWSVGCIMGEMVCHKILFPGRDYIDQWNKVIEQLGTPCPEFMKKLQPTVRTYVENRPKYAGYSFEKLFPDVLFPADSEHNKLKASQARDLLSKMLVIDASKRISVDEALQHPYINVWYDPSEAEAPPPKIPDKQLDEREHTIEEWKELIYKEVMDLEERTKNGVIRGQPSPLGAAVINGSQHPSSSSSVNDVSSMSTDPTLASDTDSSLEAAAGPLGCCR
Chain of BRAF (P15056 whole entry): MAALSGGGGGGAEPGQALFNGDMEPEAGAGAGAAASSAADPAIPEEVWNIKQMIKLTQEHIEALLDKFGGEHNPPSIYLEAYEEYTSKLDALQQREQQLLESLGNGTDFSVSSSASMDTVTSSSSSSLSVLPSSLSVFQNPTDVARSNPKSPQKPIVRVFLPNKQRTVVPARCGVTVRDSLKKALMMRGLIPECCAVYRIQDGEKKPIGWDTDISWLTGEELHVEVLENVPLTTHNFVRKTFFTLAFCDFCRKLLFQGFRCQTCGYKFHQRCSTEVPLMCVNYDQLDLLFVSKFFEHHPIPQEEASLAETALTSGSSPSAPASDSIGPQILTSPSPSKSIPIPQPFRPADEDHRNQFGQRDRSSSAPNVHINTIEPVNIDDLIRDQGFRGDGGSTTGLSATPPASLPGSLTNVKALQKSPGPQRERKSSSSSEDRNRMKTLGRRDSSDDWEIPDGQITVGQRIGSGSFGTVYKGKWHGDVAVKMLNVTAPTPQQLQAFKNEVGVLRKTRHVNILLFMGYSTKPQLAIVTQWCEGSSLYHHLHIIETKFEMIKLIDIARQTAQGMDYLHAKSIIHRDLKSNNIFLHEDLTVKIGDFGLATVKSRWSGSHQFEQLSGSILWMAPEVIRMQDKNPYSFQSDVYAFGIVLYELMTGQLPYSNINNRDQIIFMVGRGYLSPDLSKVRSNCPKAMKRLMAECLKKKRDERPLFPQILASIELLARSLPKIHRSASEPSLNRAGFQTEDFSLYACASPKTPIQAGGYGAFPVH
Chain of GSK3B (P49841 whole entry): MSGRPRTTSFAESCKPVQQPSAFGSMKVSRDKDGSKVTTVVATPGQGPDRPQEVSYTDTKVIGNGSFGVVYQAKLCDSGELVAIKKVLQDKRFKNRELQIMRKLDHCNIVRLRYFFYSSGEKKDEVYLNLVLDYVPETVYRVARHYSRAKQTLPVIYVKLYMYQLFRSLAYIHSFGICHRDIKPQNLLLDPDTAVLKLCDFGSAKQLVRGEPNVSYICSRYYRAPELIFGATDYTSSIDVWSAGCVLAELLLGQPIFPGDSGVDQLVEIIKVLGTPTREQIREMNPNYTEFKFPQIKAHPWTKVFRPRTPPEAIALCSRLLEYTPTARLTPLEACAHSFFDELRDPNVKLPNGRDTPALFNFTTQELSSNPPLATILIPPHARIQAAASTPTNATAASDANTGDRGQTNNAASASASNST
Chain of IKK-alpha (O15111 whole entry): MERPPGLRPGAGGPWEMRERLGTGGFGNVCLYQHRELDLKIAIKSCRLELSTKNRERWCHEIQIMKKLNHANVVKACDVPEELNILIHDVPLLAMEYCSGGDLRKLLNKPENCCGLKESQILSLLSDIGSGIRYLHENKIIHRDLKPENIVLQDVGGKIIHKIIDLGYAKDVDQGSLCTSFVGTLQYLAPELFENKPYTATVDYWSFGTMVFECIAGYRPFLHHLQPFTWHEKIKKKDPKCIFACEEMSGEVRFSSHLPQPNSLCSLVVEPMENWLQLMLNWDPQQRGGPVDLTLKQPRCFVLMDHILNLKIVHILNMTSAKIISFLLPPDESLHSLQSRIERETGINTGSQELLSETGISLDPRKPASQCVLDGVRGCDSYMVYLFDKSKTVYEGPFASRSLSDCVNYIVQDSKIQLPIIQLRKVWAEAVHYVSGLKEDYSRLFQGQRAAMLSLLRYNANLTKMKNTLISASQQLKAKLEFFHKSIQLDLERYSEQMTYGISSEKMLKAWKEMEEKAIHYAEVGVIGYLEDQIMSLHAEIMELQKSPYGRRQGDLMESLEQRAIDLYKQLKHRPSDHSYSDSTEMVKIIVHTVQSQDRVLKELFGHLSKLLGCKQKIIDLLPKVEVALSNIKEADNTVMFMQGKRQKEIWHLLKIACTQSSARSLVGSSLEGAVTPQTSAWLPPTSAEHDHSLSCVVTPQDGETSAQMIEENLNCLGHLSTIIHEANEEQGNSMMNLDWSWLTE
Chain of CDK3 (Q00526 whole entry): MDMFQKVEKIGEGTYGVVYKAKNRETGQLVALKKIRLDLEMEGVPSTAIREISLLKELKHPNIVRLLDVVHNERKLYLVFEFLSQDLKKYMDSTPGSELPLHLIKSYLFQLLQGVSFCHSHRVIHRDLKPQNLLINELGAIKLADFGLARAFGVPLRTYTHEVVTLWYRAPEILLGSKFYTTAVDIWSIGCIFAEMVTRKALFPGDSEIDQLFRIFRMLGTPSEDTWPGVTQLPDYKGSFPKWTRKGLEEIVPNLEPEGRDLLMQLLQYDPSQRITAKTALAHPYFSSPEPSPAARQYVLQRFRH
Chain of IKK-beta (O14920 whole entry): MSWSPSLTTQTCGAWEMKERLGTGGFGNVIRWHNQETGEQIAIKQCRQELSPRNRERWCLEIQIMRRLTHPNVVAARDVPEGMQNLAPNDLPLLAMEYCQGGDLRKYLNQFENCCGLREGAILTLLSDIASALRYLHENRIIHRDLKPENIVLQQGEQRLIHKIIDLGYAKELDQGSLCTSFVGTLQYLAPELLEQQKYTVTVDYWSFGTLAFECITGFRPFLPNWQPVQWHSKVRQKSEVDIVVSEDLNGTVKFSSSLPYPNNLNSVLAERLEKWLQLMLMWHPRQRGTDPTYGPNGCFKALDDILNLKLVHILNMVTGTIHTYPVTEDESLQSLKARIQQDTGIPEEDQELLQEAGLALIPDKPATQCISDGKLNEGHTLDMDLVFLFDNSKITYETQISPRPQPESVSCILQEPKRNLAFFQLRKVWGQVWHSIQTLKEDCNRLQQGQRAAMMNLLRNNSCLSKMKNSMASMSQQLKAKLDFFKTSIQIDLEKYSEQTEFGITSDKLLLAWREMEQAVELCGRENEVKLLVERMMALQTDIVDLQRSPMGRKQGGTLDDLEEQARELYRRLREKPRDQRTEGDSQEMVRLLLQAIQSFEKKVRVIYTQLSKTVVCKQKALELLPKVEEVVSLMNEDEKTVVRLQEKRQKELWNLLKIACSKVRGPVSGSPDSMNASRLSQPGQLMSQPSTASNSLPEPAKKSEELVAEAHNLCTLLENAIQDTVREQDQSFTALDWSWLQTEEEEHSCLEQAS

## C=C1CCCCCCCCCC(CO)C1=O (stereo not drawn) [EP009, 2-(Hydroxymethyl)-12-methylenecyclododecanone]
[1]
  stability in mouse plasma: stable and readily detected
[2]
  dose limiting safety in vivo: 200 to 300 mg/kg
BRAF
  Kinase Activity (% of Control): 72 % of Control
CDK3
  Kinase Activity (% of Control): 100 % of Control
GSK3B
  Kinase Activity (% of Control): 100 % of Control
IKK-alpha
  Kinase Activity (% of Control): 87 % of Control
IKK-beta
  Kinase Activity (% of Control): 73 % of Control
JNK1
  Kinase Activity (% of Control): 99 % of Control
PIM1
  Kinase Activity (% of Control): 100 % of Control
PIM2
  Kinase Activity (% of Control): 100 % of Control
PLK3
  Kinase Activity (% of Control): 92 % of Control
PLK4
  inhibition of Polo-like kinase 4 (PLK4): 47 % inhibition
PLK4; PLK4
  Kinase Activity (% of Control): 53 % of Control
SNARK
  Kinase Activity (% of Control): 82 % of Control
TIE2
  Kinase Activity (% of Control): 90 % of Control

— patent US9371265B2, “Compositions and methods related to inhibitors of JAK kinase” (EP PHARMA, INC., priority 2012, dated 2016)
